Test results reported in PMC11694556 (Proteins, 2024).
Each block holds one compound with its values, some of them ahead of it.

Legend:
Type in all cases: binding
[1] = molecular target: T1, cypin (cytosolic PSD-95 interactor; guanine deaminase) (Rattus norvegicus, UniProt Q9WTT6); assay: intrinsic tryptophan fluorescence quenching; also NADH-coupled assay (Km […]) and LC-MS of deaminated product
T1 construct: gene Gda
T1 sequence (Q9WTT6 1-454): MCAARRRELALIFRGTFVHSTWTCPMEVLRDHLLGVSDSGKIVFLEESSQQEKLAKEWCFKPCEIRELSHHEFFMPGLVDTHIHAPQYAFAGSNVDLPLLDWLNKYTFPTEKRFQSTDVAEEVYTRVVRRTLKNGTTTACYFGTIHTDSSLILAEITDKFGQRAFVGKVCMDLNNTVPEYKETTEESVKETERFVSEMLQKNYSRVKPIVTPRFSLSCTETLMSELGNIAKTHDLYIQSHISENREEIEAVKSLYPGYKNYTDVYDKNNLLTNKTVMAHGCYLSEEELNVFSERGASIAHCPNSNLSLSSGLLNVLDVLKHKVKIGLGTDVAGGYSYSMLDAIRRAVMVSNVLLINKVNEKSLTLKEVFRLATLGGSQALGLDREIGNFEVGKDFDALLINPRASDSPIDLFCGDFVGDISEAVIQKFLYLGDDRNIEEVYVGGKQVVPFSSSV

[2] = molecular target: T1, cypin (cytosolic PSD-95 interactor; guanine deaminase); assay: intrinsic tryptophan fluorescence quenching (Hill fit); also Amplex Red coupled xanthine oxidase/uricase assay
[3] = molecular target: T1, cypin (cytosolic PSD-95 interactor; guanine deaminase); assay: intrinsic tryptophan fluorescence quenching; also NADH-coupled deaminase assay (Km […])

- Kd [1]: 74.4 µM
Compound: CC(C)[C@H](N)C(=O)OCCOCn1cnc2c(=O)[nH]c(N)nc21 [valacyclovir]

- Kd [2]: 227 µM
Compound: Nc1nc2c(ncn2COCCO)c(=O)[nH]1 [acyclovir]

Compound: Nc1nc2nc[nH]c2c(=O)[nH]1 [guanine]
- Kd [3]: 0.598 µM
